Measurements from patent publication US11460474B2, “Marker for statin treatment stratification in heart failure” (Roche Diagnostics Operations, Inc., priority 2013, dated 2022).

Tests used:
[1] = system: patient with heart failure; test: Case examples: statin therapy started after biomarker determination in heart failure patients; conditions: person
Procedure: PlGF is determined in a plasma sample obtained from the patient. The PlGF value is above 22 pg/mL. The physician prescribes atorvastatin 20 mg/d and closely monitors creatine kinase to exclude myopathy.

[2] = system: patients with CHF; conditions: rosuvastatin 10 mg daily, CORONA and GISSI-HF trials; cited from earlier work

Structure (SMILES) | outcome (death or hospitalization) ([1]; NYHA class III heart failure, prior myocardial infarction, PlGF above 22 pg/mL, atorvastatin 20 mg/d, next 1.5 years) | outcome (death or hospitalization) ([1]; class C heart failure, no CAD, GDF-15 above 3800 pg/mL, atorvastatin 10 mg/d, next 16 months) | effect of statin treatment on primary end point [2]
CC(C)c1c(C(=O)Nc2ccccc2)c(-c2ccccc2)c(-c2ccc(F)cc2)n1CC[C@@H](O)C[C@@H](O)CC(=O)O [atorvastatin, Atorvastatin] | remains stable with a good outcome | remains stable with a good outcome | 
CC(C)c1nc(N(C)S(C)(=O)=O)nc(-c2ccc(F)cc2)c1/C=C/[C@@H](O)C[C@@H](O)CC(=O)O [rosuvastatin, Rosuvastatin] |  |  | failed to demonstrate a beneficial effect
